Values of other authors in patent US20240164375A1, “LIQUID DISINFECTANT COMPOSITION AND USE THEREOF” (HYPRED, priority 2002, published 2024).

Conditions: 25° C.

CCCCCCCC(=O)O [octanoic acid]
pKa: 4.85
